According to patent publication US10413529B2, “Methods of inhibiting cataracts and presbyopia” (UNIVERSITY OF MASSACHUSETTS, priority 2013, dated 2019):
Blank lines part the entries; values can stand above or below the compound they belong to.

Key:
[1] = DLS of individual α-crystallin solutions (size in dilute solution); assay type: physicochemical; conditions: individual protein solution
Method: (§1) Scattering intensity was measured at angles between 30° and 90° at 5° intervals, corresponding to a scattering wave vector (q) range between 8.41×10^6 and 2.30×10^7 m^−1. The scattering wave vector is defined as q=4πn sin (θ/2)/λ, where θ is the scattering angle, and λ=514.5, the wavelength of the argon laser in vacuum, and n is 1.33, the refractive index of water. The temperature of the sample was held at constant temperature of 4 to 37±0.1° C. by a circulating water bath.
(§2) The correlation function was analyzed using CONTIN analysis to calculate lag times for the correlation functions at measured angles. The peaks represent the diffusive mode of the proteins. The delay times (τ) were converted to Γ and graphed versus q^2. The slope of the fitted line is the diffusion coefficient (D). The lines are fitted such that the intercept is zero because a non-zero value of q=0 is unphysical. The Γ versus q^2 plots were linear with r^2 values of 0.95 or greater.
(§3) All solutions were filtered with 0.22 μm hydrophobic PVDF membranes (Fisher Scientific) into 10 mm diameter borosilicate glass tubes and sealed. Solutions were allowed to equilibrate for thirty minutes prior to measuring light scattering.
Individual solutions of α-A, α-B, γD- and γ-S crystallin proteins were investigated to understand the size scale and how the proteins behave in dilute solution. (Table 1) Temperature had little effect on protein size in solution as measured by DLS.

γ-crystallin [2] = assay: DLS, aggregation of γ-crystallin (stated for γD and γS together); assay type: biochemical; conditions: for effect on the large γ-crystallin aggregate: α-crystallin mixed with γD- or γS-crystallin, molar ratio 3:1, one hour at 4° C.; for aggregation of γ-crystallin modified with the agent (DLS): dilute solution, 22° and 37° C.
Method: as §1, §2, §3
γ-crystallins were subjected to a variety of experimental conditions, including a range of pHs (5, 6, 7, 8, 9, 10, 11), concentrations of KCl (100 mM, 150 mM, 300 mM, 500 mM, 1000 mM) and temperature (4.5° C., 22° C., 37° C.). The pH and salt concentration were adjusted via overnight dialysis at 4° C. and their final concentration adjusted to 1.0 g/L.
It had been hypothesized that disulfide bonds might mediate the observed γ-crystallin aggregates. The DLS of the γ-crystallin proteins was also measured in 5 mM DTT, and in the presence of 1.0 g/L α-crystallin. […] Thus, this hypothesis was incorrect.
Further, the synthesized α-crystallin proteins were mixed with γ-crystallin proteins to determine if the chaperoning ability of α-crystallin disrupts the γ-crystallin aggregates. The α-A and α-B crystallins were each individually mixed with γD- or γS-crystallin in a molar ratio of 3:1, respectively, mimicking the ratio found in the human eye lens. All solutions were allowed to equilibrate for an hour at 4° C.

γ-crystallin [3] = assay: Circular dichroism of modified γ-crystallin (secondary structure); assay type: biochemical; conditions: 0.5 mg/mL, 22° C., versus native protein
Method: Crystallin samples were dialyzed overnight into 10 mM Na2HPO4/NaH2PO4 buffer pH 6.8 and measured at a concentration of 0.5 mg/mL. CD spectra were measured on a Jasco J715 spectropolarimeter at 22° C. using a quartz cell of 1 mm path length.

γD-crystallin = biological target: T1, γD-crystallin (Homo sapiens, UniProt P07320); assay: Dynamic light scattering (DLS) of γD-crystallin, hydrodynamic radius of monomer and aggregate; assay type: biochemical; conditions: for Rh: γD modified with the agent; for Rhf / Rhs: γD; for Rhf: fast mode
T1 construct: 6xHis (N); made in house; host or cells: M15pRep E. coli (pQe1 plasmid from King Labs, MIT)
T1 sequence (P07320 1-174): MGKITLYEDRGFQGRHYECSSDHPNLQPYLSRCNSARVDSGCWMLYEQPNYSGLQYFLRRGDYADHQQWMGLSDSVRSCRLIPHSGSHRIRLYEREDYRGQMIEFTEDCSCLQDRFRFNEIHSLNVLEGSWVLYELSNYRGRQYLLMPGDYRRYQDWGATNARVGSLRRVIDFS
Method: (§4) The scattering wave vector is defined as q=4πn sin (θ/2)/λ, where θ is the scattering angle, and λ=514.5, the wavelength of the argon laser in vacuum, and n is 1.33, the refractive index of water. The temperature of the sample was held at constant temperature of 4 to 37±0.1° C. by a circulating water bath. The correlation function was analyzed using CONTIN analysis [NT] times for the correlation functions at measured angles. […] The delay times (τ) were converted to Γ and graphed versus q^2. The slope of the fitted line is the diffusion coefficient (D). […] All solutions were filtered with 0.22 μm hydrophobic PVDF membranes (Fisher Scientific) into 10 mm diameter borosilicate glass tubes and sealed. Solutions were allowed to equilibrate for thirty minutes prior to measuring light scattering. […] The pH and salt concentration were adjusted via overnight dialysis at 4° C. and their final concentration adjusted to 1.0 g/L. […] The scattering wave vector is defined as q=4πn sin (θ/2)/λ, where θ is the scattering angle, and λ=514.5, the wavelength of the argon laser in vacuum, and n is 1.33, the refractive index of water. The temperature of the sample was held at constant temperature of 4 to 37±0.1° C. by a circulating water bath. The correlation function was analyzed using CONTIN analysis [NT] times for the correlation functions at measured angles. […] The delay times (τ) were converted to Γ and graphed versus q^2. The slope of the fitted line is the diffusion coefficient (D). […] All solutions were filtered with 0.22 μm hydrophobic PVDF membranes (Fisher Scientific) into 10 mm diameter borosilicate glass tubes and sealed. Solutions were allowed to equilibrate for thirty minutes prior to measuring light scattering.

γS-crystallin = biological target: T2, γS-crystallin (Homo sapiens, UniProt P22914); assay: Dynamic light scattering (DLS) of γS-crystallin, hydrodynamic radius of monomer and aggregate; assay type: biochemical; conditions: for Rh: γS modified with the agent; for Rhf / Rhs: γS; for Rhf: fast mode
T2 construct: 6xHis (N); made in house; host or cells: M15pRep E. coli (pQe1 plasmid from King Labs, MIT)
T2 sequence (P22914 1-178): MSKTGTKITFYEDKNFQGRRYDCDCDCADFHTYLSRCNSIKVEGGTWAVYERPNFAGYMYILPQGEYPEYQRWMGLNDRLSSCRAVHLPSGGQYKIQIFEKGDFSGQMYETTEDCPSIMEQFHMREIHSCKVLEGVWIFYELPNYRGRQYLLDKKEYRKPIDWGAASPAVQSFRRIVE
Method: as §4

[4] = fast mode (monomer, first Rh column), 22° C.
[5] = α-crystallin additive, molar ratio 3:1, one hour at 4° C.
[6] = slow mode, α-crystallin additive, molar ratio 3:1, one hour at 4° C.
[7] = slow mode (aggregate), 100 mM NaCl
[8] = slow mode (aggregate), 150 mM NaCl
[9] = slow mode (aggregate), 300 mM NaCl

Compound: αA: αA-crystallin, heat shock protein and molecular chaperone, 19.9 kDa
- Rh ([1]; 4°): 12 nm
- Rh ([1]; 22°): 12 nm
- Rh ([1]; 37°): 13 nm
- effect on the large γ-crystallin aggregate (γ-crystallin [2]): the large γ-crystallin aggregate of several hundred nanometers disappeared

Compound: Biotin
- secondary structure of modified γ-crystallin (CD spectra) (γ-crystallin [3]): showed a sizeable shift upwards as compared with the native structure of the protein
- aggregation of γ-crystallin modified with the agent (DLS) (γ-crystallin [2]): resulted in aggregation
- Rh (γD-crystallin; fast mode (monomer), 37° C.): 2.7 nm
- Rh (γD-crystallin; [4]): 2.8 nm
- Rh (γD-crystallin; slow mode (aggregate), 22° C.): 150 nm
- Rh (γD-crystallin; slow mode (aggregate), 37° C.): 170 nm
- Rh (γS-crystallin; fast mode (monomer), 37° C.): 2.8 nm
- Rh (γS-crystallin; [4]): 2.6 nm
- Rh (γS-crystallin; slow mode (aggregate), 22° C.): 180 nm
- Rh (γS-crystallin; slow mode (aggregate), 37° C.): 210 nm

Compound: [Cl-].[K+] [KCl]
- aggregate formation (γ-crystallin [2]; KCl concentrations 400 to 1000 mM): aggregate formation was effectively inhibited
- reduction in the size of γ-crystallin aggregates (γ-crystallin [2]; KCl concentrations of less than 300 nM (so in the source)): did not provide a reduction in the size of γ-crystallin aggregates
- reduction of γ-crystallin aggregates (γ-crystallin [2]; salt concentrations over 300 mm KCl (so in the source)): did reduce γ-crystallin aggregates to individual protein particles

Compound: [Cl-].[Na+] [NaCl]
- Rhf (γD-crystallin; 100 mM NaCl): 2.8 nm
- Rhf (γD-crystallin; 150 mM NaCl): 2.8 nm
- Rhf (γD-crystallin; 300 mM NaCl): 2.6 nm
- Rhf (γD-crystallin; 400 mM NaCl): 2.7 nm
- Rhf (γD-crystallin; 500 mM NaCl): 2.8 nm
- Rhf (γD-crystallin; 1000 mM NaCl): 2.5 nm
- Rhs (γD-crystallin; [7]): 108 nm
- Rhs (γD-crystallin; [8]): 104 nm
- Rhs (γD-crystallin; [9]): 91 nm
- Rhf (γS-crystallin; 100 mM NaCl): 2.7 nm
- Rhf (γS-crystallin; 150 mM NaCl): 2.7 nm
- Rhf (γS-crystallin; 300 mM NaCl): 2.9 nm
- Rhf (γS-crystallin; 400 mM NaCl): 2.6 nm
- Rhf (γS-crystallin; 500 mM NaCl): 2.5 nm
- Rhf (γS-crystallin; 1000 mM NaCl): 2.6 nm
- Rhs (γS-crystallin; [7]): 104 nm
- Rhs (γS-crystallin; [8]): 102 nm
- Rhs (γS-crystallin; [9]): 100 nm

Second part, led by results:

- Rh (γD-crystallin; fast mode (monomer), 37° C.): 2.6 nm
- Rh (γD-crystallin; [4]): 2.5 nm
- Rh (γD-crystallin; slow mode (aggregate), 22° C.): 82.5 nm
- Rh (γD-crystallin; slow mode (aggregate), 37° C.): 85 nm
- Rh (γS-crystallin; fast mode (monomer), 37° C.): 2.5 nm
- Rh (γS-crystallin; [4]): 2.5 nm
- Rh (γS-crystallin; slow mode (aggregate), 22° C.): 92.5 nm
- Rh (γS-crystallin; slow mode (aggregate), 37° C.): 90 nm
Compound: CC(=O)O.O=C1CC(S(=O)(=O)O)C(=O)N1O (stereo not shown) [SA, sulfo-N-hydroxysuccinimide acetate]
- secondary structure of modified γ-crystallin (CD spectra) (γ-crystallin [3]): smaller well around 220 nm as compared to the native
- aggregation of γ-crystallin modified with the agent (DLS) (γ-crystallin [2]): did not prevent aggregation

- Rh (γD-crystallin; fast mode (monomer), 37° C.): 2.9 nm
- Rh (γD-crystallin; [4]): 2.8 nm
- Rh (γS-crystallin; fast mode (monomer), 37° C.): 2.9 nm
- Rh (γS-crystallin; [4]): 2.9 nm
Compound: PEG4
- secondary structure of modified γ-crystallin (CD spectra) (γ-crystallin [3]): did not significantly affect the secondary structures
- aggregation of γ-crystallin modified with the agent (DLS) (γ-crystallin [2]): showed no aggregation

- Rhf (γD-crystallin; [5]): 3.2 nm
- Rhs (γD-crystallin; [6]): 17 nm
- Rhf (γS-crystallin; [5]): 3 nm
- Rhs (γS-crystallin; [6]): 19 nm
Compound: αB: αB-crystallin, heat shock protein and molecular chaperone, 20.16 kDa
- Rh ([1]; 4°): 12 nm
- Rh ([1]; 22°): 13 nm
- Rh ([1]; 37°): 13 nm
- effect on the large γ-crystallin aggregate (γ-crystallin [2]): the large γ-crystallin aggregate of several hundred nanometers disappeared

- Rhf (γD-crystallin; additive 5 mM DTT): 2.6 nm
- Rhs (γD-crystallin; slow mode, additive 5 mM DTT): 108 nm
- Rhf (γS-crystallin; additive 5 mM DTT): 3 nm
- Rhs (γS-crystallin; slow mode, additive 5 mM DTT): 102 nm
Compound: O[C@@H](CS)[C@@H](O)CS [DTT, reference compound]
- effect on the size of the γ-crystallin aggregates (γ-crystallin [2]; 5 mM DTT): had no effect on the size of the γ-crystallin aggregates
